US6914045B2, “Glycopeptide antibiotics” (Wyeth Holdings Corporation, priority 2001, dated 2005)
Values after ≈ are worked out from the molar mass of the structure shown.

Assays:
[1] = anatomic pathology (histopathology of heart and kidney) in mice; format: in vivo; conditions: CD-1 mice, 20 mg/kg intravenously daily for 9 days, necropsy day 10, microscopic histopathology
Experimental: Samples of tissues from necropsied mice were formalin-fixed, paraffin-embedded, sectioned, stained with hematoxylin and eosin, and examined microscopically. Histopathologic findings were recorded. These findings were subjectively graded on a scale corresponding to slight, mild, moderate, marked and severe as compared to untreated controls.

[2] = test system: Staphylococcus aureus-SMITH (GC 4543); assay: acute lethal infection in mice; format: in vivo; conditions: acute lethal infection, female CD-1 mice, intraperitoneal challenge, intravenous 30 min. after infection, 7 day survival
In short: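 Intraperitoneal challenge of female CD-1 mice with a bacterial dose lethal to untreated animals within 24-48 hr; single iv treatment 30 min later, 5 mice per dose level. Survival is scored at day 7 and pooled from three experiments to give the median effective dose.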

[3] = test system: Escherichia coli; assay: in vitro antibacterial evaluation, MIC by broth dilution; format: cell-based; conditions: broth dilution, 18 hours at 35° C.
In short: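 MIC is the lowest antibiotic concentration (tested 64-0.06 μg/mL) preventing growth of a 5×10^5 CFU/mL inoculum. Determined by broth dilution in Mueller-Hinton II medium following NCCLS standard M7-A2.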

[4] = test system: Staphylococcus sp.; assay: as above; format: cell-based; conditions: broth dilution, 18 hours at 35° C.
In short: (§1)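 Test organisms, which included recent clinical isolates resistant to methicillin, penicillin and/or vancomycin, were inoculated at 5×10^5 CFU/mL into Muller-Hinton II […] containing antibiotic at 64-0.06 μg/mL. Minimum inhibitory concentrations were then read as the lowest level inhibiting growth.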

[5] = test system: Streptococcus sp.; assay: as above; format: cell-based; conditions: broth dilution, 18 hours at 35° C.
In short: as §1

[6] = test system: Enterococcus sp.; assay: as above; format: cell-based; conditions: broth dilution, 18 hours at 35° C.
In short: as §1

With `Cc1ccc(Oc2cccc(-c3nc4cc(CC5NC(=O)C(C(C)c6ccccc6)NC(=O)CNC(=O)C(CO)NC(=O)C(C(O)C6CNC(=N)N6C6OC(CO)C(O)C(O)C6O)NC(=O)C(C(O)C6CNC(=N)N6)NC5=O)ccc4o3)c2)cc1` (stereo not drawn) [Example 28, Cyclo[3-[2-[3-(4-methylphenoxy)phenyl]-1,3-benzoxazol-5-yl]alanyl-3-(2-iminoimidazolidin-4-yl)seryl-3-(3-hexopyranosyl-2-iminoimidazolidin-4-yl)serylserylglycyl-β-methylphenyl-alanyl]] the “Anatomical Pathology (Day 10), Heart” value [1] was 0, the “Anatomical Pathology (Day 10), Kidney” value [1] was 0 and the median effective dose (ED50), Staphylococcus aureus-SMITH (GC 4543) [2] was 8 mg/kg. For the same compound, the “MIC Escherichia coli (ATCC 25922)” value ([3]; strain ATCC 25922) was 64 µg/mL (≈ 54.3 µM), the “MIC Escherichia coli (GC 4559)” value ([3]; strain GC 4559) was 64 µg/mL (≈ 54.3 µM) and the “MIC Escherichia coli (GC 4560)” value ([3]; strain GC 4560) was 8 µg/mL (≈ 6.79 µM). For the same compound, the “MIC Staphylococcus aureus (ATCC 29213)” value ([4]; strain ATCC 29213) was 8 µg/mL (≈ 6.79 µM), the “MIC Staphylococcus aureus (GC 1131)” value ([4]; strain GC 1131) was 8 µg/mL (≈ 6.79 µM) and the “MIC Staphylococcus aureus (GC 3051)” value ([4]; strain GC 3051) was 4 µg/mL (≈ 3.39 µM). The “MIC Staphylococcus aureus (GC 3053)” value ([4]; strain GC 3053) was 4 µg/mL (≈ 3.39 µM), the “MIC Staphylococcus aureus (GC 4541)” value ([4]; strain GC 4541) was 8 µg/mL (≈ 6.79 µM) and the “MIC Staphylococcus aureus (GC 4542)” value ([4]; strain GC 4542) was 8 µg/mL (≈ 6.79 µM). The “MIC Staphylococcus aureus-SMITH (GC 4543)” value ([4]; strain GC 4543) was 4 µg/mL (≈ 3.39 µM), the “MIC Staphylococcus aureus (GC 4544)” value ([4]; strain GC 4544) was 8 µg/mL (≈ 6.79 µM) and the “MIC Staphylococcus aureus (GC 4545)” value ([4]; strain GC 4545) was 4 µg/mL (≈ 3.39 µM). The “MIC Staphylococcus haemolyticus (GC 4546)” value ([4]; strain GC 4546) was 4 µg/mL (≈ 3.39 µM), the “MIC Coagulase Negative Staphylococcus (GC 4547)” value ([4]; strain GC 4547) was 8 µg/mL (≈ 6.79 µM) and the “MIC Coagulase Negative Staphylococcus (GC 4548)” value ([4]; strain GC 4548) was 4 µg/mL (≈ 3.39 µM). The “MIC Coagulase Negative Staphylococcus (GC 4549)” value ([4]; strain GC 4549) was 4 µg/mL (≈ 3.39 µM), the “MIC Coagulase Negative Staphylococcus (GC 4551)” value ([4]; strain GC 4551) was 4 µg/mL (≈ 3.39 µM) and the “MIC Coagulase Negative Staphylococcus (GC 6257)” value ([4]; strain GC 6257) was 2 µg/mL (≈ 1.7 µM). The “MIC Streptococcus pneumoniae (ATCC 6301)” value ([5]; strain ATCC 6301) was 4 µg/mL (≈ 3.39 µM), the “MIC Streptococcus pneumoniae (GC 1894)” value ([5]; strain GC 1894) was 4 µg/mL (≈ 3.39 µM) and the “MIC Streptococcus pyogenes (GC 4563)” value ([5]; strain GC 4563) was 1 µg/mL (≈ 0.849 µM). The “MIC Streptococcus agalactiae (GC 4564)” value ([5]; strain GC 4564) was 4 µg/mL (≈ 3.39 µM), the “MIC Streptococcus pneumoniae (GC 4565)” value ([5]; strain GC 4565) was 4 µg/mL (≈ 3.39 µM) and the “MIC Enterococcus faecalis (ATCC 29212)” value ([6]; strain ATCC 29212) was 8 µg/mL (≈ 6.79 µM). For the same compound, the “MIC Enterococcus faecalis (GC 2242)” value ([6]; strain GC 2242) was 4 µg/mL (≈ 3.39 µM), the “MIC Enterococcus faecium (GC 2243)” value ([6]; strain GC 2243) was 8 µg/mL (≈ 6.79 µM) and the “MIC Enterococcus faecalis (GC 2691)” value ([6]; strain GC 2691) was 8 µg/mL (≈ 6.79 µM). For the same compound, the “MIC Enterococcus faecalis (GC 3059)” value ([6]; strain GC 3059) was 8 µg/mL (≈ 6.79 µM), the “MIC Enterococcus faecalis (GC 4552)” value ([6]; strain GC 4552) was 8 µg/mL (≈ 6.79 µM) and the “MIC Enterococcus faecalis (GC 4553)” value ([6]; strain GC 4553) was 4 µg/mL (≈ 3.39 µM). For the same compound, the “MIC Enterococcus faecalis (GC 4554)” value ([6]; strain GC 4554) was 8 µg/mL (≈ 6.79 µM), the “MIC Enterococcus faecium (GC 4556)” value ([6]; strain GC 4556) was 8 µg/mL (≈ 6.79 µM) and the “MIC Enterococcus faecium (GC 4557)” value ([6]; strain GC 4557) was 4 µg/mL (≈ 3.39 µM). The “MIC Enterococcus avium (GC 4558)” value ([6]; strain GC 4558) was 4 µg/mL (≈ 3.39 µM) and the “MIC Enterococcus faecalis (GC 6189)” value ([6]; strain GC 6189) was 8 µg/mL (≈ 6.79 µM).
